According to PubChem BioAssay AID248 (DTP/NCI, 2004):
Several values for one entry are separate records, joined by “and”; a condition that tells them apart may be missing. Identical values can stand only once. Inconclusive results and toxic doses are left out. Cut-off read from the data, not from the text of the source: active = T/C of 150% or more; inactive = T/C below 125%.

Tested on: L1210 leukemia ip in BDF1 mice, survival T/C
Experiment: NCI In Vivo Anticancer Drug Screen. Data for tumor model L1210 Leukemia (intraperitoneal) in B6D2F1 (BDF1) mice
Details: endpoint: mean survival time, higher = longer survival
Procedure, shortened: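 Read-out is survival time, reported as the treated-group measurement over the vehicle-control measurement.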

[1] = dose: 100.0 mg/kg/injection, schedule: Q01DX001 (ip), vehicle: saline
[2] = dose: 200.0 mg/kg/injection, schedule: Q01DX001 (ip), vehicle: saline
[3] = dose: 25.0 mg/kg/injection, schedule: Q01DX009 (ip), vehicle: saline with Tween-80
[4] = dose: 50.0 mg/kg/injection, schedule: Q01DX009 (ip), vehicle: saline with Tween-80
[5] = dose: 100.0 mg/kg/injection, schedule: Q01DX009 (ip), vehicle: saline with Tween-80
[6] = dose: 100.0 mg/kg/injection, schedule: Q04DX003 (ip), vehicle: saline with Tween-80
[7] = dose: 100.0 mg/kg/injection, schedule: Q04DX003 (ip), vehicle: Klucel (hydroxypropylcellulose) (HPC)
[8] = dose: 200.0 mg/kg/injection, schedule: Q04DX003 (ip), vehicle: Klucel (hydroxypropylcellulose) (HPC)
[9] = dose: 400.0 mg/kg/injection, schedule: Q04DX003 (ip), vehicle: Klucel (hydroxypropylcellulose) (HPC)
[10] = dose: 100.0 mg/kg/injection, schedule: Q01DX001 (ip), vehicle: carboxymethylcellulose (CMC)
[11] = dose: 100.0 mg/kg/injection, schedule: Q04DX003 (ip), vehicle: saline
[12] = dose: 200.0 mg/kg/injection, schedule: Q01DX009 (ip), vehicle: saline with Tween-80
[13] = dose: 100.0 mg/kg/injection, schedule: Q01DX009 (ip), vehicle: Klucel (hydroxypropylcellulose) (HPC)
[14] = dose: 200.0 mg/kg/injection, schedule: Q01DX009 (ip), vehicle: Klucel (hydroxypropylcellulose) (HPC)

Measured: T/C

CC1CN=C(c2ccc(NC(=O)Nc3ccc(C4=NCCN4)cc3)cc2)N1 (stereo unspecified)
inactive: dose: 1.88 mg/kg/injection, schedule: Q01DX Z (ip), vehicle: saline 112 % of control | dose: 3.75 mg/kg/injection, schedule: Q01DX Z (ip), vehicle: saline 113 % of control

CCOC(=O)CC1(C)CCC2C1C(=O)OC2(C)C (stereo unspecified)
inactive: [1] 105 % of control | [2] 104 % of control | dose: 400.0 mg/kg/injection, schedule: Q01DX001 (ip), vehicle: saline 110 % of control

COc1c2ccoc2c(OCC=C(C)C)c2oc(=O)ccc12
inactive: dose: 100.0 mg/kg/injection, schedule: Q01DX009 (ip), vehicle: other 98 % of control | dose: 100.0 mg/kg/injection, schedule: Q04DX003 (ip), vehicle: saline sonified 107 % of control | dose: 200.0 mg/kg/injection, schedule: Q01DX009 (ip), vehicle: other 111 % of control | dose: 200.0 mg/kg/injection, schedule: Q04DX003 (ip), vehicle: saline sonified 102 % of control | dose: 400.0 mg/kg/injection, schedule: Q01DX009 (ip), vehicle: other 95 % of control | dose: 400.0 mg/kg/injection, schedule: Q04DX003 (ip), vehicle: saline sonified 97 % of control

C(#CCN1CCCC1)CCCN1CCCC1
inactive: [3] 98 % of control | dose: 25.0 mg/kg/injection, schedule: Q04DX003 (ip), vehicle: saline with Tween-80 97 % of control | [4] 102 % of control | dose: 50.0 mg/kg/injection, schedule: Q04DX003 (ip), vehicle: saline with Tween-80 97 % of control | [5] 95 % of control | [6] 93 % of control and 98 % of control

CC1=CC(C)C(=O)N(CC(C)N2CCCC2)C(C)=C1 (stereo unspecified)
inactive: dose: 75.0 mg/kg/injection, schedule: Q01DX001 (ip), vehicle: carboxymethylcellulose (CMC) 102 % of control

O=C(Nc1ccccc1)c1ccc([N+](=O)[O-])cc1Cl
inactive: [7] 100 % of control | [8] 95 % of control | [9] 90 % of control

NC(N)=N/N=C/C(Cl)(Cl)Cl
inactive: dose: 15.0 mg/kg/injection, schedule: Q01DX Z (ip), vehicle: saline 87 % of control | dose: 30.0 mg/kg/injection, schedule: Q01DX Z (ip), vehicle: saline 103 % of control | dose: 60.0 mg/kg/injection, schedule: Q01DX Z (ip), vehicle: saline 95 % of control | dose: 60.0 mg/kg/injection, schedule: Q01DX Z (oral), vehicle: saline 97 % of control | dose: 120.0 mg/kg/injection, schedule: Q01DX Z (oral), vehicle: saline 97 % of control | dose: 240.0 mg/kg/injection, schedule: Q01DX Z (oral), vehicle: saline 95 % of control | dose: 480.0 mg/kg/injection, schedule: Q01DX Z (oral), vehicle: saline 98 % of control

Cc1ccc(NC(=O)N(C)N=O)cc1
inactive: dose: 17.7 mg/kg/injection, schedule: Q01DX009 (ip), vehicle: carboxymethylcellulose (CMC) 118 % of control | dose: 26.6 mg/kg/injection, schedule: Q01DX009 (ip), vehicle: carboxymethylcellulose (CMC) 117 % of control | dose: 40.0 mg/kg/injection, schedule: Q01DX009 (ip), vehicle: carboxymethylcellulose (CMC) 120 % of control | dose: 50.0 mg/kg/injection, schedule: Q01DX001 (ip), vehicle: Klucel (hydroxypropylcellulose) (HPC) 119 % of control | dose: 60.0 mg/kg/injection, schedule: Q01DX009 (ip), vehicle: carboxymethylcellulose (CMC) 88 % of control | dose: 89.0 mg/kg/injection, schedule: Q01DX001 (ip), vehicle: carboxymethylcellulose (CMC) 107 % of control | dose: 100.0 mg/kg/injection, schedule: Q01DX001 (ip), vehicle: Klucel (hydroxypropylcellulose) (HPC) 111 % of control | [10] 116 % of control | dose: 133.0 mg/kg/injection, schedule: Q01DX001 (ip), vehicle: carboxymethylcellulose (CMC) 122 % of control | dose: 200.0 mg/kg/injection, schedule: Q01DX001 (ip), vehicle: Klucel (hydroxypropylcellulose) (HPC) 114 % of control | dose: 400.0 mg/kg/injection, schedule: Q01DX001 (ip), vehicle: Klucel (hydroxypropylcellulose) (HPC) 114 % of control

NS(=O)(=O)c1cc(Cl)ccc1Cl
inactive: dose: 100.0 mg/kg/injection, schedule: Q01DX001 (ip), vehicle: saline with Tween-80 88 % of control | dose: 200.0 mg/kg/injection, schedule: Q01DX001 (ip), vehicle: saline with Tween-80 94 % of control | dose: 400.0 mg/kg/injection, schedule: Q01DX001 (ip), vehicle: saline with Tween-80 91 % of control

ClCCN1CCOCC1
inactive: dose: 25.0 mg/kg/injection, schedule: Q01DX009 (ip), vehicle: saline 97 % of control | dose: 25.0 mg/kg/injection, schedule: Q04DX003 (ip), vehicle: saline 93 % of control and 106 % of control | dose: 50.0 mg/kg/injection, schedule: Q01DX009 (ip), vehicle: saline 100 % of control | dose: 50.0 mg/kg/injection, schedule: Q04DX003 (ip), vehicle: saline 93 % of control and 111 % of control | [11] 98 % of control and 104 % of control and 108 % of control

c1ccc(-c2ccc(-c3ccccc3)o2)cc1
inactive: dose: 100.0 mg/kg/injection, schedule: Q04DX002 (ip), vehicle: Klucel (hydroxypropylcellulose) (HPC) 106 % of control | dose: 200.0 mg/kg/injection, schedule: Q04DX002 (ip), vehicle: Klucel (hydroxypropylcellulose) (HPC) 95 % of control | dose: 400.0 mg/kg/injection, schedule: Q04DX002 (ip), vehicle: Klucel (hydroxypropylcellulose) (HPC) 106 % of control

CCN(CC)Cc1cc(Nc2cc(C)nc(/N=C(\N)Nc3cc(Cl)cc(Cl)c3)n2)ccc1O
inactive: [6] 98 % of control

CCCC/C=C/CO
inactive: [3] 97 % of control | [4] 97 % of control and 100 % of control | [12] 97 % of control and 100 % of control

CN(C)CCOC(=O)c1cccc(CCBr)c1
inactive: dose: 87.5 mg/kg/injection, schedule: Q01DX009 (ip), vehicle: saline 103 % of control | dose: 175.0 mg/kg/injection, schedule: Q01DX009 (ip), vehicle: saline 92 % of control | dose: 350.0 mg/kg/injection, schedule: Q01DX009 (ip), vehicle: saline 104 % of control

COc1cc(C(=O)N(C)C)nc(OC)n1
inactive: [11] 106 % of control | dose: 200.0 mg/kg/injection, schedule: Q04DX003 (ip), vehicle: saline 108 % of control | dose: 400.0 mg/kg/injection, schedule: Q04DX003 (ip), vehicle: saline 106 % of control

O=C(c1ccccc1)c1c2ccccc2c(-c2ccccc2)c2ccccc12
inactive: [13] 101 % of control | [7] 92 % of control | [14] 103 % of control | [8] 89 % of control | dose: 400.0 mg/kg/injection, schedule: Q01DX009 (ip), vehicle: Klucel (hydroxypropylcellulose) (HPC) 92 % of control | [9] 90 % of control

CCc1ccncc1
inactive: [1] 101 % of control | [2] 88 % of control

S=c1nc(COc2ccccc2Cl)[nH][nH]1
inactive: [4] 106 % of control | [5] 100 % of control | [6] 98 % of control | [12] 97 % of control | dose: 200.0 mg/kg/injection, schedule: Q04DX003 (ip), vehicle: saline with Tween-80 102 % of control | dose: 400.0 mg/kg/injection, schedule: Q01DX009 (ip), vehicle: saline with Tween-80 98 % of control | dose: 400.0 mg/kg/injection, schedule: Q04DX003 (ip), vehicle: saline with Tween-80 96 % of control

CC(=O)Nc1ccc(Cc2ccccc2)cc1[N+](=O)[O-]
inactive: [10] 106 % of control | dose: 200.0 mg/kg/injection, schedule: Q01DX001 (ip), vehicle: carboxymethylcellulose (CMC) 98 % of control | dose: 400.0 mg/kg/injection, schedule: Q01DX001 (ip), vehicle: carboxymethylcellulose (CMC) 97 % of control

Cc1cc(S(=O)(=O)c2cc(C)c(O)c(C(=O)O)c2)cc(C(=O)O)c1O
inactive: dose: 100.0 mg/kg/injection, schedule: Q04DX002 (ip), vehicle: carboxymethylcellulose (CMC) 95 % of control | dose: 200.0 mg/kg/injection, schedule: Q04DX002 (ip), vehicle: carboxymethylcellulose (CMC) 98 % of control

O=C1C(C2(O)C(=O)Nc3ccccc32)CCCC1C1(O)C(=O)Nc2ccccc21 (stereo unspecified)
inactive: dose: 50.0 mg/kg/injection, schedule: Q01DX009 (ip), vehicle: Klucel (hydroxypropylcellulose) (HPC) 97 % of control | [13] 104 % of control | [14] 101 % of control

Cc1cc2c(cc1C)C1(c3ccccc3)OC2(c2ccccc2)C(C(=O)c2ccccc2)C1C(=O)c1ccccc1 (stereo unspecified)
inactive: [4] 91 % of control | [5] 91 % of control | [12] 91 % of control
